In US20250163168A1, “NOVEL ANTIBODIES AND ANTIBODY CONJUGATES FOR THE TREATMENT OF METABOLIC DISORDERS” (PFIZER INC., priority 2023, published 2025) one finds Emax data, which are given here for four compounds.

Square brackets hold non-standard residues; d marks the D form. Ends that are not written are not given here. * marks the point of attachment. Aib = CC(C)(N)C(=O)O; BrAc = O=C(CBr)*

The target in this test is T1, human GLP1R (Homo sapiens, UniProt P43220).
T1 construct: expressed in transfected cells; host or cells: CHO
T1 sequence (P43220 24-463): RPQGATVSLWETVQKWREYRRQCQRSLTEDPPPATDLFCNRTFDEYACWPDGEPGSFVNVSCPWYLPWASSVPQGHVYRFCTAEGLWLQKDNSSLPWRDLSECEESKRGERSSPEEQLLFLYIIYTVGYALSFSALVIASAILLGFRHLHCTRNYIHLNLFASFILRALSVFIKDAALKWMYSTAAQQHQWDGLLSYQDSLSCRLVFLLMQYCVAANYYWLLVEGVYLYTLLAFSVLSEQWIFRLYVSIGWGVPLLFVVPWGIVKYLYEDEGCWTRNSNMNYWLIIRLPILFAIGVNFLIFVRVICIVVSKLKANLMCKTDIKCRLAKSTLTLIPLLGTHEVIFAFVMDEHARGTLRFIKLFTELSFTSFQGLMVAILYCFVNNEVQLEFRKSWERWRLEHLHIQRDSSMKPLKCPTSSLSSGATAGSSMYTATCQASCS
The experiment in a line: GLP1R agonist cAMP assay in CHO cells stably expressing human GLP1R. The test is classed as cell-based. Conditions: relative to maximal effect of human GLP-1, read-out: GLP1R agonist mode Emax (%). How it is done: cAMP assay: The in vitro agonist potency of the peptides disclosed herein was evaluated using a cell-based assay measuring cAMP production. CHO cells stably expressing human GLP1R, or both human GIPR and GLP1R, were incubated with increasing concentrations of agonists for 30 minutes at 37° C. Cells were lysed and cAMP was detected using a homogenous time resolved fluorescence detection kit, as described by the manufacturer (Revvity). […] The EC50 and maximum effect (Emax) values were then determined from the normalized effects and agonist concentrations using a four-parameter logistic equation (GraphPad Prism).
For orientation: Cyclic AMP is a second messenger, typically raised through Gs and lowered through Gi signalling.
Turning to `CC[C@H](C)[C@H](NC(=O)[C@H](Cc1ccccc1)NC(=O)[C@H](CCC(=O)O)NC(=O)[C@H](CCCCN)NC(=O)[C@H](C)NC(=O)[C@H](C)NC(=O)[C@H](CCC(N)=O)NC(=O)[C@H](CCC(=O)O)NC(=O)[C@H](CCC(=O)O)NC(=O)[C@H](CC(C)C)NC(=O)[C@H](Cc1ccc(O)cc1)NC(=O)[C@H](CO)NC(=O)[C@H](CO)NC(=O)[C@H](Cc1ccc(O)cc1)NC(=O)[C@H](CC(=O)O)NC(=O)[C@H](CO)NC(=O)[C@@H](NC(=O)[C@H](Cc1ccccc1)NC(=O)[C@@H](NC(=O)CNC(=O)[C@H](CCC(=O)O)NC(=O)C(C)(C)NC(=O)[C@@H](N)Cc1c[nH]cn1)[C@@H](C)O)[C@@H](C)O)C(=O)N[C@@H](C)C(=O)N[C@@H](Cc1c[nH]c2ccccc12)C(=O)N[C@@H](CC(C)C)C(=O)N[C@H](C(=O)N[C@@H](CCCCN)C(=O)NCC(=O)NCC(=O)NCC(=O)NCC(=O)NCC(=O)NCC(=O)NCC(=O)N[C@@H](CO)C(=O)NCC(=O)NCC(=O)NCC(=O)NCC(=O)N[C@@H](CO)C(=O)NCC(=O)NCC(=O)NCC(=O)NCC(=O)N[C@@H](CO)C(=O)N[C@@H](CCCCNC(=O)CBr)C(N)=O)C(C)C` [compound 154], the Emax (usually the size of the effect at its maximum, as opposed to the concentration needed) was determined as 122%.
In the case of “H[Aib]EGTFTSDVSSYLEEQAAKEFIAWLVKGGGGGGGSGGGGSGGGGSK(BrAc)-NH2 (C-terminus assumed) [compound 153]”, the Emax amounted to 109%.
Take “H[Aib]EGTFTSDYSSYLEEQAAKEFIAWLVKGRGGGGGSGGGGSGGGGSK(BrAc)-NH2 (C-terminus assumed) [compound 151]”: the Emax came to 109%.
Turning to “H[Aib]EGTFTSDYSSYLE[Aib]QAAKEFIAWLVKGRGGGGGSGGGGSGGGGSK(BrAc)-NH2 (C-terminus assumed) [compound 152]”, the Emax is 107%.
